# From publication PMC12299847, “Macroalgae-Inspired Brominated Chalcones as Cosmetic Ingredients with the Potential to Target Skin Inflammaging” (Marine Drugs, 2025)
# Assays:
# RAW 264.7 macrophages = experiment: Resazurin cell viability assay in RAW 264.7 macrophages; assay type: cell-based, murine; conditions: RAW 264.7, 24 h, 2.5 to 125 μM
# Experimental: (§1) To evaluate the effects of chalcones 1–7 on cell viability after 24 h, a resazurin assay was performed using two cell lines: human HaCaT keratinocytes (HaCaT, CLS 300493), representing the epidermal layer, and murine RAW 264.7 macrophages (RAW 264.7, ATCC TIB-71), which model immune cells involved in dermal inflammatory responses. For the keratinocyte cell line, all seven brominated and non-brominated chalcones were tested across a concentration range from 2.5 μM to 125 μM (Figure 2).
# To evaluate the cytotoxic effects of brominated and non-brominated chalcones 1–7 on macrophages, different concentration ranges were applied based on the response profiles previously observed for keratinocytes (Figure 3). […] For this set of chalcones, a similar tendency was observed: a lower cytotoxic characteristic of chalcone 4, which contained bromine atoms in both aromatic rings, compared to chalcones 5 (brominated in only the aromatic A ring) and 6 (non-brominated).
# (§2) Human keratinocytes (HaCaT, CLS 300493, Eppelheim, Germany) were cultured in DMEM supplemented with heat-inactivated FBS, and a penicillin and streptomycin antibiotic solution. The cell culture of keratinocytes was washed with 6 mL of phosphate buffer solution with 0.05% EDTA (Sigma-Aldrich, St. Louis, MO, USA) and detached using 3 mL of 0.05% trypsin + 0.02% EDTA in PBS solution when the cells reached 70–80% confluence in cell culture flasks. DMEM was also used to cultivate the mouse macrophage cell line (RAW 264.7, ATCC TIB-71, Manassas, VA, USA) together with 10% (v/v) non-inactivated FBS, 1.5 g/L sodium bicarbonate, and 100 U/mL penicillin and 100 μg/mL streptomycin stock (antibiotic solution). The macrophage culture was mechanically detached using a cell scraper, and the final amount of DMEM media with the cells was sub-cultured in a 1:10 ratio to the cellular suspension.
# The resazurin reduction assay was employed to evaluate the metabolic activity of human epidermal keratinocyte (HaCaT) and murine macrophage (RAW264.7) cell lines, as outlined in a previous study. In brief, HaCaT cells (1.0 × 10^5 cells/mL) and RAW264.7 cells (5.0 × 10^4 cells/mL) were seeded in 96-well plates (200 μL/well) and incubated overnight at 37 °C to allow for cell attachment. Following this, the cells were treated with different concentrations of the test compounds and kept at 37 °C for 24 h. After 20 h, resazurin (500 μM in sterile phosphate buffer solution, pH 7.4) was added to each well to achieve a final concentration of 50 μM, followed by an additional incubation of 4 h. Absorbance was then measured at wavelengths of 570 and 620 nm using a SpectraMax Plus 384 absorbance microplate spectrophotometer (Molecular Devices, San Jose, CA, USA). Each experiment was conducted in triplicate, with a minimum of three independent assays. […]
# [1] = NO scavenging potential (SNAP assay); assay type: biochemical; conditions: SNAP 300 μM, 3 h; compounds 100 μM (methods) or 7.5 μM (Figure 5)
# Experimental: The SNAP (S-nitroso-N-acetylpenicillamine) assay is a well-established method for assessing the NO scavenging capacity of compounds, offering valuable insights into their potential direct antioxidant and anti-inflammatory properties. In this study, chalcones 1–7 were tested for their ability to capture NO radicals induced by the presence of SNAP at a concentration of 300 μM (Figure 5). […] Instead, these compounds could potentially exert their effects via alternative mechanisms, such as the modulation of iNOS activity or by targeting upstream targets in the inflammatory cascade, such as by the suppression of NF-κB activation, and/or Nrf2 activation, which will deplete co-activators from the iNOS enzyme, thereby reducing iNOS transcription and, consequently, iNOS protein levels and NO production.
# The ability to scavenge NO was assessed using S-nitroso-N-acetyl-D/L-penicillamine (SNAP) as a source of NO. The production of NO was quantified using the Griess reaction, following a previously described method. […] Absorbance at 550 nm was then measured using a Biotek Synergy HT plate reader (Biotek, CA, USA). The nitrite concentration in the supernatants was determined by comparing the absorbance of each sample to a sodium nitrite standard curve. […]
# HaCaT keratinocytes = experiment: Resazurin cell viability assay in HaCaT keratinocytes; assay type: cell-based, human; conditions: HaCaT, 24 h, significant effects only at 62.5 μM and 125 μM
# Experimental: as §1, §2
# The resazurin reduction assay was employed to evaluate the metabolic activity of human epidermal keratinocyte (HaCaT) and murine macrophage (RAW264.7) cell lines, as outlined in a previous study. In brief, HaCaT cells (1.0 × 10^5 cells/mL) and RAW264.7 cells (5.0 × 10^4 cells/mL) were seeded in 96-well plates (200 μL/well) and incubated overnight at 37 °C to allow for cell attachment. Following this, the cells were treated with different concentrations of the test compounds and kept at 37 °C for 24 h. After 20 h, resazurin (500 μM in sterile phosphate buffer solution, pH 7.4) was added to each well to achieve a final concentration of 50 μM, followed by an additional incubation of 4 h. Absorbance was then measured at wavelengths of 570 and 620 nm using a SpectraMax Plus 384 absorbance microplate spectrophotometer (Molecular Devices, San Jose, CA, USA). Each experiment was conducted in triplicate, with a minimum of three independent assays. The results were graphically presented as the percentage of cell viability versus chemical concentration, relative to the control.
# Figure 2 Cytotoxicity of chalcones 1–7 using a resazurin reduction assay in HaCaT cells by comparison with the control. Bar graphs represent the mean ± SEM of at least three independent experiments performed in triplicate. Statistical analysis: one ANOVA with Dunnett’s multiple comparisons test, where p < 0.05 was considered significant when compared to the control condition. * p < 0.05, ** p < 0.01, and *** p < 0.0005.
smiles,measurement,setting,value
COc1cc(Br)c(/C=C/C(=O)c2cc(OC)c(OC)cc2Br)cc1OC [Chalcone 1],cytotoxicity towards macrophages,RAW 264.7 macrophages,no cytotoxicity
same,NO scavenging activity,[1],No direct NO scavenging action
same,maximal reduction in viability,HaCaT keratinocytes,≤ 25%
